The source of these data is article PMC10407959 (Journal of medicinal chemistry, 2023).

A short description of one data set: HPLC-based Log D7.4. The class given is physicochemical. The conditions noted are these: from HPLC retention factors, calibration with five standards.
The target in the next data set is σ1 receptor (Cavia porcellus, UniProt Q60492). Nature of the data set: PDSP off-target radioligand binding. The following applies: read-out: Ki, σ1 receptor; NIMH PDSP.
The target in another data set is T1, σ2 receptor (Rattus norvegicus, UniProt Q5U3Y7).
T1 sequence (Q5U3Y7 1-176): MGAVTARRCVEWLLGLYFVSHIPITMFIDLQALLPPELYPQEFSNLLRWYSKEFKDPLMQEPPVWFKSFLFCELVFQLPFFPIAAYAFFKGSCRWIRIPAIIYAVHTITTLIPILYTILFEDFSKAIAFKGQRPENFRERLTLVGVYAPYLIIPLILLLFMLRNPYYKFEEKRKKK
Nature of the data set: PDSP off-target radioligand binding. The following applies: read-out: Ki, σ2 receptor; NIMH PDSP.

The next data set concerns the target serotonin 5-HT1B (Homo sapiens, UniProt P28222). Description: PDSP off-target radioligand binding. The following applies: read-out: Ki, serotonin 5-HT1B; NIMH PDSP.
For the next data set, the target named is 5-HT5A (Homo sapiens, UniProt P47898). Description: PDSP off-target radioligand binding.
Sequence of 5-HT5A (P47898 whole entry, species assumed): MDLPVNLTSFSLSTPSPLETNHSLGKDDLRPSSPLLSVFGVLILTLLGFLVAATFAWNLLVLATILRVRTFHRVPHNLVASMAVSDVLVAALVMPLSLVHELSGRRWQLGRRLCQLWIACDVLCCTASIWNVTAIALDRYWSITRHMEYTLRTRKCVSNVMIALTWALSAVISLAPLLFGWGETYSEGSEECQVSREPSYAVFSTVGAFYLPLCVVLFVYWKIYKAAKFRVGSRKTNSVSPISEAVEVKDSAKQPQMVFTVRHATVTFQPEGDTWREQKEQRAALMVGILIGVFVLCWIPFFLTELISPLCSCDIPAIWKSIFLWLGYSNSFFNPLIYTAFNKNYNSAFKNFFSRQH
Data set [1] has as its target T2, hP2Y14R (Homo sapiens, UniProt Q15391).
T2 sequence (Q15391 1-338): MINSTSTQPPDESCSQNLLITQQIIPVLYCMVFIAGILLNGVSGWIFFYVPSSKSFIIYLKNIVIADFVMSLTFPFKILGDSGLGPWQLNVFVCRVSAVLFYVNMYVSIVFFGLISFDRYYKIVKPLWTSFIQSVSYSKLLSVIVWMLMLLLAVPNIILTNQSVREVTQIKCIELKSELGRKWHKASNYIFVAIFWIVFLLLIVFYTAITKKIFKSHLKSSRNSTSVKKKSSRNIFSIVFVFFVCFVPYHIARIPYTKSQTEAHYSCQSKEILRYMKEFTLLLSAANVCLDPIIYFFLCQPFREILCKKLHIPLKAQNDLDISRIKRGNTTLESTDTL
Nature of the data set: whole-cell fluorescent competitive binding assay.

Data set [2] addresses T2, hP2Y14R. Description: fluorescent binding saturation study in whole CHO cells expressing hP2Y14R. The conditions noted are these: final concentrations of 53 of 2, 100, 500, and 20,000 nM.
Data set [3] can be described thus: pharmacokinetics of double prodrug 62 p.o. in female CD1 mice. The conditions noted are these: 62 by oral gavage (p.o.).
The subject of the next data set is mouse CCI model. Description: mouse model of chronic neuropathic pain. The following applies: for reversal of mechano-allodynia (paw withdrawal threshold): day 7 post-sciatic nerve constriction, adult male mice.
Data set [4] can be described thus: pharmacokinetics of mono-ester prodrug 63 s.c. in female CD1 mice. The following applies: 10 mg/kg s.c.
The test system of data set [5] is protease-mediated mouse model of allergic asthma. Description: protease-mediated mouse model of allergic asthma, BAL fluid cells. The following applies: 10 mg/kg i.p., C57BL/6J mice.
The target in the next data set is T3, mP2Y14R (Mus musculus, UniProt Q9ESG6).
T3 sequence (Q9ESG6 1-338): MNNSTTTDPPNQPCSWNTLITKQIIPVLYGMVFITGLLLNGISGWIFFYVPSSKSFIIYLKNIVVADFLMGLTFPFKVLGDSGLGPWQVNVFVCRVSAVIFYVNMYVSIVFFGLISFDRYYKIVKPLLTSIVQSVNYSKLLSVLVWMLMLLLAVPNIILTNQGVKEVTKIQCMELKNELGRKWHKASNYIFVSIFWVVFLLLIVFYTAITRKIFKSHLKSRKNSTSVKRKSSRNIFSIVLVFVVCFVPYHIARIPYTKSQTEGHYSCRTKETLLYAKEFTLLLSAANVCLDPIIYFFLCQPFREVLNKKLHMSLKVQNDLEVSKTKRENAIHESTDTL
Description: whole-cell fluorescent binding assay at mP2Y14R expressed in HEK-293 cells.

Data set [6] deals with cardiac ischemia-reperfusion (I/R) injury. Description: cardiac ischemia-reperfusion. Type of data set: in vivo, mouse. The conditions noted are these: 2 mg/kg/day minipump.
For data set [7] the following is noted: male, Wistar, rat, in vivo, ip.
A short description of data set [8]: pharmacokinetics and tolerability in male Wistar rats.
The subject of data set [9] is Nonhuman primate (chimpanzee) P2Y14R. The following applies: read-out: IC50 (P2Y14R), ref Belley et al.[15]; cited from earlier work.
For data set [10] the following is noted: in mouse; cited from earlier work.

“Also recorded” adds a separate entry of the source. Like-named read-outs stand apart in the source and are kept apart here.

Sequence of σ1 receptor (Q60492 whole entry): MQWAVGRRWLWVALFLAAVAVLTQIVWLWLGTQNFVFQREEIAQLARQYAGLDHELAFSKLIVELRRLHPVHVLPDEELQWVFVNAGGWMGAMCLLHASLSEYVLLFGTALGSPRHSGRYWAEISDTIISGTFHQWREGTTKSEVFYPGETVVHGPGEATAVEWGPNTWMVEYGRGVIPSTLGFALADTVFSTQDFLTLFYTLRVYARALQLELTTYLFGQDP
Sequence of serotonin 5-HT1B (P28222 whole entry): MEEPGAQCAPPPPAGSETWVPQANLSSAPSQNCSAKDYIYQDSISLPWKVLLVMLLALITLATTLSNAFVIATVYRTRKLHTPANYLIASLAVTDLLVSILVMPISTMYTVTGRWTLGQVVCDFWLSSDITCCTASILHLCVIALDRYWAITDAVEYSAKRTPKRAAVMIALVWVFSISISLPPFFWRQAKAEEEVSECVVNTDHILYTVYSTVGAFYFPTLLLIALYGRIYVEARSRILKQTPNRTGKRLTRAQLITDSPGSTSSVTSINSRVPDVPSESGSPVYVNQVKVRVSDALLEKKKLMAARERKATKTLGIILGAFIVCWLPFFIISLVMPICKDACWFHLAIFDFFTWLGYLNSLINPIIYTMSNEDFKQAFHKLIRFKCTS

A word on the Ki: it is the dissociation constant of the complex between target and ligand, obtained from inhibition or displacement. For orientation: IC50 means the midpoint of a concentration-inhibition curve. “Mixture of 4-(4-(2,3,6,7-Tetrahydro-1H-azepin-4-yl)phenyl)-7-(4-(trifluoromethyl)phenyl)-2-naphthoic Acid and 4-(4-(2,5,6,7-Tetra-hydro-1H-azepin-4-yl)phenyl)-7-(4-(trifluoromethyl)phenyl)-2-naphthoic Acid [compound 17]”: the “Log D7.4” value in “HPLC-based Log D7.4” is recorded as 2.2±0.0. Besides, the Ki on σ1 receptor worked out at 840 nM; on σ2 receptor, 3900 nM; on serotonin 5-HT1B, 4100 nM; on 5-HT5A (read-out: Ki, 5-HT5A, NIMH PDSP), 4000 nM; on hP2Y14R [1] it was 6.92 nM. In addition, the IC50 at hP2Y14R [1] (read-out: IC50 (nM), affinity at hP2Y14R, whole-cell fluorescent binding, tracer 52 (20 nM), hP2Y14R-CHO cells, n = 3–4 unless noted) turned out to be 11.9 ± 3.6 nM.

As for `C[Si]1(C)C2=CC(=[N+]3CCC3)C=CC2=C(c2cc(C(=O)NCCCCCCn3cc(CCCCN4CCC(c5ccc(-c6cc(C(=O)O)cc7cc(-c8ccc(C(F)(F)F)cc8)ccc67)cc5)CC4)nn3)ccc2C(=O)[O-])c2ccc(N3CCC3)cc21` [compound 53], at hP2Y14R [2], the “specific binding in whole CHO cells expressing the hP2Y14R” value is given as “did not demonstrate potent specific binding”.

`CCOC(=O)N1CCC(c2ccc(-c3cc(C(=O)OCC(=O)N(C)C)cc4cc(-c5ccc(C(F)(F)F)cc5)ccc34)cc2)CC1` [compound 62, Ethyl 4-(4-(3-((2-(Dimethylamino)-2-oxoethoxy)carbonyl)-6-(4-(trifluoromethyl)phenyl)naphthalen-1-yl)phenyl)piperidine-1-carboxylate]: in [3], the oral bioavailability is on record as 6.9 % F and the peak concentration was ~ 2 μg/mL. Besides, the “reversal of mechano-allodynia (paw withdrawal threshold)” value (“reversal of mechano-allodynia” for short) in the data set on mouse CCI model (i.p. injection) is recorded as “provided benefit”.

On 5-HT5A, `O=C(O)c1cc(-c2ccc(C3(O)C[C@H]4CNC[C@@H]4C3)cc2)c2ccc(-c3ccc(C(F)(F)F)cc3)cc2c1` (racemic) [compound 11, rac-4-(4-((3aR,6aR)-5-Hydroxyoctahydrocyclopenta[c]pyrrol-5-yl)phenyl)-7-(4-(trifluoromethyl)phenyl)-2-naphthoic Acid] registered a Ki of 2400 nM. Also, the “reversal of mechano-allodynia” value with mouse CCI model (i.p. injection) was “maintained over 3 h”.

With `CN(C)C(=O)COC(=O)c1cc(-c2ccc([C@H]3C[C@H]4C[C@@H]3CN4)cc2)c2ccc(-c3ccc(C(F)(F)F)cc3)cc2c1` [compound 63, reference compound], in data set [4], the “in vivo cleavage of prodrug to active drug 2b” value was “rapid cleavage of the ester group”. Also, the “reversal of mechano-allodynia” value with mouse CCI model (10 μmol/kg, p.o. (oral gavage)) was “fully efficacious within 1 h”.

Turning to `O=C(Cc1ccc(C(F)(F)F)cc1)Nc1cccc(-c2nc3cc(Cl)ccc3o2)c1` [4a, reference compound], at hP2Y14R [1] (up to 100 μM, tracer 52, hP2Y14R-expressing CHO cells), the binding inhibition result was “no binding inhibition”.

As to `CCOC(=O)N1C[C@H]2C[C@@H](C1)[C@@]2(O)c1ccc(-c2cc(C(=O)OCC(=O)N(C)C)cc3cc(-c4ccc(C(F)(F)F)cc4)ccc23)cc1` [compound 50, Ethyl (1R,5S,6r)-6-(4-(3-((2-(Dimethylamino)-2-oxoethoxy)-carbonyl)-6-(4-(trifluoromethyl)phenyl)naphthalen-1-yl)phenyl)-6-hydroxy-3-azabicyclo[3.1.1]heptane-3-carboxylate], the “airway eosinophilia (eosinophils in BAL fluid)” value (“airway eosinophilia” below) in data set [5] is reported as “lack of activity”. Also, in the data set with mouse CCI model (10 μmol/kg, p.o. (oral gavage)), the “reversal of mechano-allodynia” value is listed as “reversed the mechano-allodynia”.

The half-life is how long it takes for the measured level to halve. Read a low half-life as rapid decline. Take `O=C(O)c1cc(-c2ccc([C@]3(O)[C@@H]4CNC[C@H]3C4)cc2)c2ccc(-c3ccc(C(F)(F)F)cc3)cc2c1` [compound 15, 4-(4-((1R,5S,6r)-6-Hydroxy-3-azabicyclo[3.1.1]heptan-6-yl)-phenyl)-7-(4-(trifluoromethyl)phenyl)-2-naphthoic Acid]: the “mP2Y14R affinity higher than reference antagonist 1” value at mP2Y14R was 4.5 fold. The “protection against heart I/R injury” value in data set [6] is reported as “no protection against heart I/R injury”. Moreover, the Maximal plasma concentration amounted to 0.50 µM in data set [7] (1 mg/kg), 1.3 µM in data set [7] (3 mg/kg) and 4.0 µM in data set [7] (10 mg/kg). Further, in [8] (male Wistar rats, 1, 3, and 10 mg/kg i.p. and 0.5 mg/kg i.v.), the “mortality or morbidity / tolerability” value is “well tolerated”. The compound further showed a half-life in data set [8] (male, Wistar, rat, plasma, ip, 3 mg/kg) of 4.3 h. The “airway eosinophilia” value in data set [5] is “demonstrated significant protection”. Also, the “lymphocytes in the BAL fluid” value in data set [5] was “trend toward lower lymphocytes”. Further, the “reversal of mechano-allodynia” value with mouse CCI model (10 μmol/kg, p.o. (oral gavage)) was “nearly complete protection at 1 h; also recorded: reversed the mechano-allodynia”; with mouse CCI model (i.p. injection), “full reversal of mechano-allodynia within 0.5 h”. Further, the “duration of the protection” value in the data set with mouse CCI model (oral gavage, 10 μmol/kg, 1 and 15 in the same CCI experiment) is on record as “longer than protection by 1”. The “ligand efficiency (LE)” value on hP2Y14R [1] is recorded as 0.311.

As for `O=C(O)c1cc(-c2ccc(C3=C[C@H]4CNC[C@@H]4C3)cc2)c2ccc(-c3ccc(C(F)(F)F)cc3)cc2c1` (racemic) [compound 12, rac-4-(4-((3aR,6aR)-1,2,3,3a,4,6a-Hexahydrocyclopenta[c]-pyrrol-5-yl)phenyl)-7-(4-(trifluoromethyl)phenyl)-2-naphthoic Acid], the “more potent at the mP2Y14R (vs human)” value at mP2Y14R is 3 fold.

With `CCOC(=O)N1C[C@H]2C[C@@H]1C[C@@H]2c1ccc(-c2cc(C(=O)OCC(=O)N(C)C)cc3cc(-c4ccc(C(F)(F)F)cc4)ccc23)cc1` [compound 64, reference compound], the “reversal of mechano-allodynia” value in the data set on mouse CCI model (i.p. injection) is listed as “provided benefit”.

The compound `O=C(O)c1cc(-c2ccc(C3CCCNCC3)cc2)c2ccc(-c3ccc(C(F)(F)F)cc3)cc2c1` (stereo not shown) [compound 16, 4-(4-(Azepan-4-yl)phenyl)-7-(4-(trifluoromethyl)phenyl)-2-naphthoic Acid] came in with a Ki on 5-HT5A of 4800 nM. The “reversal of mechano-allodynia” value with mouse CCI model (i.p. injection) was “provided benefit”.

Regarding `O=C(O)c1cc(-c2ccc(C3CCNCC3)cc2)c2ccc(-c3ccc(C(F)(F)F)cc3)cc2c1` [compound 1, 4-(4-(Piperidin-4-yl)phenyl)-7-(4-(trifluoromethyl)phenyl)-2-naphthoic Acid, reference compound], in data set [9], the IC50 is 2.2 nM. In addition, in [10], the oral bioavailability was 5 % F. Also, in [5], the “airway eosinophilia” value is “reduce airway eosinophilia” and the “lymphocytes in the BAL fluid” value is “trend toward lower lymphocytes”. In addition, the “reversal of mechano-allodynia” value with mouse CCI model (10 μmol/kg, p.o. (oral gavage)) is “full reversal of mechano-allodynia; also recorded: reversed the mechano-allodynia”.
